Reference: publication PMC7679302 (Environmental Science and Pollution Research International, 2020)
Marks after values point to notes of the source that are not given here.

Tests used:
[1] = system: Japanese medaka (Oryzias latipes); design: method as in Lalone et al. [2013]; conditions: 21-day exposure; ref Lalone et al. [2013]; cited from earlier work
[2] = system: fathead minnow (Pimephales promelas); design: method as in Lalone et al. [2013]; conditions: 21-day exposure; ref Lalone et al. [2013]; cited from earlier work
Daphnia magna [3] = system: Daphnia magna; design: method as in Lalone et al. [2013]; conditions: 21-day exposure to as much as 500 μg/L; ref Lalone et al. [2013]; cited from earlier work
amphipods H. azteca = assay: 21 d range-finding sediment test, amphipods; format: in vivo, Hyalella azteca; conditions: n = 3
Description: (§1) Range-finding tests of 21 d were completed with juvenile mussels, amphipods and mayflies to assist with the selection of the concentrations to be used in final testing. Nominal concentrations in range-finding tests were 0.1, 1, 10, 100, and 1000 mg/kg, based on dry weight of sediment. Range-finding test conditions were identical to those described in the manuscript for chronic sediment tests with the exception of test duration.
Amphipods were fed 2.5 mg Tetra-min twice per week during weeks one and two, and three times during week three. At the end of the test, amphipods were removed and the survivors were counted and weighed.

mayflies Hexagenia spp. = assay: 21 d range-finding sediment test, mayflies; format: in vivo; conditions: n = 3
Description: as §1
At the end of the test, survival and wet weight of mayflies in each replicate were recorded.

amphipod Hyalella azteca = assay: Chronic 42-day sediment test with amphipods (survival, growth, reproduction, sex ratio); conditions: for Females (percent of surviving amphipods), mean (SEM) / Survival (percent of initial animals added), mean (SEM): n = 10
Description: Dechlorinated municipal tap water was used for cultures and toxicity tests. Both cultures and toxicity tests were held at 25 °C with a photoperiod of 16 h light:8 h dark, and amphipods were fed finely ground Tetra-Min fish food flakes (Tetra GMBH, Melle, Germany). Juvenile amphipods were removed weekly from breeding containers and used in toxicity tests.
Two tests were conducted for each compound. Amphipods were fed ground Tetra-Min twice per week during weeks 1 and 2, three times during week 3, and 5 mg three times per week during weeks 4 to 6. Surviving adults were counted, weighed as a group, and examined under a dissecting microscope to identify males (enlarged second gnathopods) and females, and the number of juveniles was recorded.

[4] = system: juvenile Lampsilis siliquoidea; assay: Chronic 28-day spiked sediment test with juvenile mussels (survival, burial ability); conditions: for Burial ability (percent of surviving mussels), mean (SEM) / Survival (percent of initial animals added), mean (SEM): n = 5
Description: Freshwater mussels (L. siliquoidea, 6–8 months old, ~ 1 cm in length) were purchased from Missouri State University (Springfield, MO, USA).

[5] = system: rainbow trout (Oncorhynchus mykiss); conditions: ref FDA-CDER [1996]; cited from earlier work
mayfly Hexagenia spp. [6] = conditions: Hexagenia spp. (mixture of H. rigida and H. limbata), in vivo, 42 days, pH 8.3
Description: (§3) Nominal concentrations were 10, 30, 100, 300, and 1000 mg/kg for juvenile freshwater mussels and 3, 10, 30, 100, and 300 mg/kg for amphipods and mayflies, and were based on the results of range-finding tests (detailed in Supplementary Materials). […] For each PPCP, the concentration of solvent used was consistent across treatments.
(§4) The sediments were mixed for 24 h, left open in a fume hood for 3–5 days for the acetone to evaporate, and then stored at 4 °C until use. […] All beakers were aerated for 1 week under testing conditions prior to the addition of organisms, and throughout the tests. Duration of toxicity tests varied depending on the species and endpoint of interest (see below). Water quality parameters were collected for each test (Table S1).
(§5) Briefly, eggs of Hexagenia spp. […] Prior to testing, eggs were hatched and nymphs were grown in aerated 20-L aquaria containing culture sediment (depth: 2.5 cm) and culture water (depth: 10 cm) for 6 to 7 weeks.
(§6) Ten mayflies (5–8 mg wet weight) were added to each beaker (three replicates for each control and PPCP concentration). Two tests were conducted for each compound. […] At the end of the test, mayflies were removed and surviving animals from each of the three replicates were counted and weighed.

[7] = Acute 48 h aqueous toxicity test with glochidia (viability); format: in vivo, Lampsilis siliquoidea; conditions: Lampsilis siliquoidea, in vivo
Description: (§2) Aqueous acute toxicity tests were based on the American Society for Testing and Materials (ASTM [2013]) protocols for conducting toxicity tests with early life stages of freshwater mussels. Gravid female L. siliquoidea were collected from an established reference site in the Maitland River (ON) and kept in ECCC’s Aquatic Life Research Facility (Canada Centre for Inland Waters, Burlington, ON). Glochidia were removed from gravid females and their viability (i.e., ability to close their valves) was assessed. Glochidia from a minimum of three gravid mussels whose glochidia exceeded 90% viability were pooled and exposed to a geometric series of nominal concentrations (0, 0.0025, 0.025, 0.25, 2.5, 25 mg/L) of either FIN or MGA plus a solvent control. Tests were conducted in 250-mL glass beakers (unaerated and unfed) with culture water. After 24 and 48 h of exposure, glochidia viability was assessed in a minimum of 100 glochidia per replicate (four replicates). Water samples were collected at the beginning and end of the tests, and frozen pending chemical analysis.

[8] = system: Lampsilis siliquoidea glochidia; assay: as above; format: in vivo; conditions: Lampsilis siliquoidea, in vivo, 48 h
Description: as §2

[9] = system: juvenile mussels L. siliquoidea; assay: 21 d range-finding sediment test, juvenile mussels; format: in vivo; conditions: n = 3
Description: as §1
After 21 d, mussels were recovered and transferred to Petri dishes filled with clean sand and housed in large trays of aerated culture water to assess burial ability.

mayfly Hexagenia spp. [10] = assay: Chronic 42-day sediment test with mayflies (survival, growth); conditions: measured, n = 6
Description: as §3, §4, §5, §6

Daphnia magna [11] = conditions: ref FDA-CDER [1996]; cited from earlier work
[12] = finasteride 1 mg/kg dw sediment (0.003 mg/L water), measured, 42-day
[13] = finasteride 4 mg/kg dw sediment (0.03 mg/L water), measured, 42-day
[14] = finasteride 11 mg/kg dw sediment (0.1 mg/L water), measured, 42-day
[15] = finasteride 35 mg/kg dw sediment (0.5 mg/L water), measured, 42-day
[16] = finasteride 96 mg/kg dw sediment (2 mg/L water), measured, 42-day
[17] = survival, growth, 42-day, dry weight sediment, measured
[18] = finasteride 4 mg/kg dw sediment (0.03 mg/L water), measured
[19] = finasteride 11 mg/kg dw sediment (0.1 mg/L water), measured
[20] = finasteride 35 mg/kg dw sediment (0.5 mg/L water), measured
[21] = finasteride 96 mg/kg dw sediment (2 mg/L water), measured
[22] = finasteride 430 mg/kg dw sediment (20 mg/L water), measured
[23] = survival, dry weight sediment, measured
[24] = survival, overlying water, measured

CC(=O)S[C@@H]1CC2=CC(=O)CC[C@]2(C)[C@H]2CC[C@@]3(C)[C@@H](CC[C@@]34CCC(=O)O4)[C@H]12 [spironolactone]
Concentration that reduced fecundity [1]: 50 ng/mL
Concentration that reduced fecundity [2]: 50 ng/mL
Effect on reproduction (Daphnia magna [3]): no effect

CC(C)(C)NC(=O)[C@H]1CC[C@H]2[C@@H]3CC[C@H]4NC(=O)C=C[C@]4(C)[C@H]3CC[C@]12C [Finasteride]
Growth, mean (SEM) (amphipods H. azteca; 0.1 mg/kg dry weight nominal): 1.1 (0.12) mg wet weight
Survival (%), mean (SEM) (amphipods H. azteca; 0.1 mg/kg dry weight nominal): 100 (0.0) %
Growth, mean (SEM) (amphipods H. azteca; 1 mg/kg dry weight nominal): 1.1 (0.04) mg wet weight
Survival (%), mean (SEM) (amphipods H. azteca; 1 mg/kg dry weight nominal): 100 (0.0) %
Growth, mean (SEM) (amphipods H. azteca; 10 mg/kg dry weight nominal): 1.2 (0.05) mg wet weight
Survival (%), mean (SEM) (amphipods H. azteca; 10 mg/kg dry weight nominal): 100 (0.0) %
Growth, mean (SEM) (amphipods H. azteca; 100 mg/kg dry weight nominal): 0.79 (0.06) mg wet weight
Survival (%), mean (SEM) (amphipods H. azteca; 100 mg/kg dry weight nominal): 100 (0.0) %
Survival (%), mean (SEM) (amphipods H. azteca; 1000 mg/kg dry weight nominal): 0^a (0.0) %
Growth, mean (SEM) (mayflies Hexagenia spp.; 0.1 mg/kg dry weight nominal): 30 (0.5) mg wet weight
Survival (%), mean (SEM) (mayflies Hexagenia spp.; 0.1 mg/kg dry weight nominal): 100 (0.0) %
Growth, mean (SEM) (mayflies Hexagenia spp.; 1 mg/kg dry weight nominal): 30 (0.6) mg wet weight
Survival (%), mean (SEM) (mayflies Hexagenia spp.; 1 mg/kg dry weight nominal): 100 (0.0) %
Growth, mean (SEM) (mayflies Hexagenia spp.; 10 mg/kg dry weight nominal): 31 (0.3) mg wet weight
Survival (%), mean (SEM) (mayflies Hexagenia spp.; 10 mg/kg dry weight nominal): 100 (0.0) %
Growth, mean (SEM) (mayflies Hexagenia spp.; 100 mg/kg dry weight nominal): 29 (1.3) mg wet weight
Survival (%), mean (SEM) (mayflies Hexagenia spp.; 100 mg/kg dry weight nominal): 93 (3.3)^a %
Growth, mean (SEM) (mayflies Hexagenia spp.; 1000 mg/kg dry weight nominal): 4.5^a,^d (0.0) mg wet weight
Survival (%), mean (SEM) (mayflies Hexagenia spp.; 1000 mg/kg dry weight nominal): 3.3^a (3.3) %
Survival, % of pooled controls (amphipod Hyalella azteca; 96 mg/kg (2 mg/L) FIN, 42-day): 65%
NOEC, overlying water (amphipod Hyalella azteca; Hyalella azteca, in vivo, 42 days, pH 8.3): 0.5 mg/L
Females (percent of surviving amphipods), mean (SEM) (amphipod Hyalella azteca; [12]): 57 (4.2) %
Survival (percent of initial animals added), mean (SEM) (amphipod Hyalella azteca; [12]): 96 (1.4) %
Females (percent of surviving amphipods), mean (SEM) (amphipod Hyalella azteca; [13]): 53 (3.0) %
Survival (percent of initial animals added), mean (SEM) (amphipod Hyalella azteca; [13]): 93 (1.7) %
Females (percent of surviving amphipods), mean (SEM) (amphipod Hyalella azteca; [14]): 50 (4.4) %
Survival (percent of initial animals added), mean (SEM) (amphipod Hyalella azteca; [14]): 94 (1.7) %
Females (percent of surviving amphipods), mean (SEM) (amphipod Hyalella azteca; [15]): 52 (2.7) %
Survival (percent of initial animals added), mean (SEM) (amphipod Hyalella azteca; [15]): 92 (2.0) %
Females (percent of surviving amphipods), mean (SEM) (amphipod Hyalella azteca; [16]): 69 (4.4)^d %
Survival (percent of initial animals added), mean (SEM) (amphipod Hyalella azteca; [16]): 63 (8.3)^d %
ChV, sediment (amphipod Hyalella azteca; survival, growth, 42-day, dry weight sediment): 58 mg/kg
LOEC, sediment (amphipod Hyalella azteca; [17]): 96 mg/kg
NOEC, sediment (amphipod Hyalella azteca; [17]): 35 mg/kg
ChV, overlying water (amphipod Hyalella azteca; survival, growth, 42-day, overlying water): 1 mg/L
LOEC, overlying water (amphipod Hyalella azteca; survival, growth, 42-day, overlying water, measured): 2 mg/L
Burial ability (percent of surviving mussels), mean (SEM) [4, 18]: 90 (5.5) %
Survival (percent of initial animals added), mean (SEM) [4, 18]: 94 (2.4) %
Burial ability (percent of surviving mussels), mean (SEM) [4, 19]: 98 (2.0) %
Survival (percent of initial animals added), mean (SEM) [4, 19]: 94 (4.0) %
Burial ability (percent of surviving mussels), mean (SEM) [4, 20]: 88 (4.0) %
Survival (percent of initial animals added), mean (SEM) [4, 20]: 98 (2.0) %
Burial ability (percent of surviving mussels), mean (SEM) [4, 21]: 82 (5.5) %
Survival (percent of initial animals added), mean (SEM) [4, 21]: 72 (8.6)^d %
Burial ability (percent of surviving mussels), mean (SEM) [4, 22]: 0 (0)^d %
Survival (percent of initial animals added), mean (SEM) [4, 22]: 10 (5.5)^d %
Overlying water concentration at which both survival and burial ability were reduced ([4]; measured): 20 mg/L
Sediment concentration at which both survival and burial ability were reduced ([4]; measured): 430 mg/kg
ChV, sediment ([4]; survival, dry weight sediment): 58 mg/kg
LOEC, sediment [4, 23]: 96 mg/kg
NOEC, sediment [4, 23]: 35 mg/kg
ChV, overlying water ([4]; survival, overlying water): 1 mg/L
LOEC, overlying water [4, 24]: 2 mg/L
NOEC, overlying water [4, 24]: 0.5 mg/L
96-h LC50 [5]: 20 µg/mL
ChV, overlying water (mayfly Hexagenia spp. [6]): 1 mg/L
LOEC, overlying water (mayfly Hexagenia spp. [6]): 2 mg/L
LOEC, sediment (mayfly Hexagenia spp. [6]): 96 mg/kg
NOEC, overlying water (mayfly Hexagenia spp. [6]): 0.5 mg/L
NOEC, sediment (mayfly Hexagenia spp. [6]): 35 mg/kg
viability at 48 h, 0.003 mg/L [7]: 90%
viability at 48 h, 0.03 mg/L [7]: 87%
viability at 48 h, 0.3 mg/L [7]: 87%
viability at 48 h, 2.5 mg/L [7]: 88%
viability at 48 h, 23 mg/L [7]: 85%
ChV (geometric mean of NOEC and LOEC) [8]: 7.6 mg/L
LOEC [8]: 23 mg/L^a
NOEC [8]: 2.5 mg/L
Burial (%), mean (SEM) ([9]; 0.1 mg/kg dry weight nominal): 72 (6.3) %
Survival (%), mean (SEM) ([9]; 0.1 mg/kg dry weight nominal): 100 (0.0) %
Burial (%), mean (SEM) ([9]; 1 mg/kg dry weight nominal): 93 (3.3) %
Survival (%), mean (SEM) ([9]; 1 mg/kg dry weight nominal): 100 (0.0) %
Burial (%), mean (SEM) ([9]; 10 mg/kg dry weight nominal): 87 (6.7) %
Survival (%), mean (SEM) ([9]; 10 mg/kg dry weight nominal): 100 (0.0) %
Burial (%), mean (SEM) ([9]; 100 mg/kg dry weight nominal): 90 (0.0) %
Survival (%), mean (SEM) ([9]; 100 mg/kg dry weight nominal): 100 (0.0) %
Burial (%), mean (SEM) ([9]; 1000 mg/kg dry weight nominal): 77 (5.1) %
Survival (%), mean (SEM) ([9]; 1000 mg/kg dry weight nominal): 53 (6.7)^a %
Survival (percent of initial animals added), mean (SEM) (mayfly Hexagenia spp. [10]; finasteride 1 mg/kg dw sediment (0.003 mg/L water)): 98 (1.7) %
Survival (percent of initial animals added), mean (SEM) (mayfly Hexagenia spp. [10]; finasteride 4 mg/kg dw sediment (0.03 mg/L water)): 97 (2.1) %
Survival (percent of initial animals added), mean (SEM) (mayfly Hexagenia spp. [10]; finasteride 11 mg/kg dw sediment (0.1 mg/L water)): 100 (0.0) %
Survival (percent of initial animals added), mean (SEM) (mayfly Hexagenia spp. [10]; finasteride 35 mg/kg dw sediment (0.5 mg/L water)): 90 (2.6)^d,i %
Survival (percent of initial animals added), mean (SEM) (mayfly Hexagenia spp. [10]; finasteride 96 mg/kg dw sediment (2 mg/L water)): 97 (2.1) %
96-h LC50 (Daphnia magna [11]): 21 µg/mL
